Measured values taken from patent US11013698B2, “Combinations of LSD1 inhibitors for the treatment of hematological malignancies” (Oryzon Genomics S.A., priority 2016, dated 2021).
Where two headings read alike, the source gives them in different places.

Assays:
Assay in all cases: Viability assay (96 hours), Alamar Blue
Format in all cases: cell-based
MOLM-13 = settings: for EC50: Homo sapiens, read-out: EC50 (viability); for Reduction of viability (compared to vehicle controls): serial 1:3 dilution
Description: (§1) AML cell lines were maintained in RPMI 10% FBS medium at 37° C. in a humidified incubator with controlled 5% CO2 atmosphere. Cell freezing and thawing was performed following recommendation from ATCC. Genetic profiling of the cell lines used is available in table 2. Cells were seeded at the optimal density (to guarantee linear growth during the treatment), as previously determined (4000 cells/well, except 16000 cells/well in the case of KASUMI-1 cells), in 96-well plates with 50 μL of medium. Three wells were reserved for each experimental condition; medium-only and vehicle-treated controls were also added for background correction and normalization respectively. […] Alamar Blue® is a cell viability indicator that uses the natural reducing power of living cells to convert resazurin to the fluorescent molecule, resorufin^43.

MV(4;11) = settings: for EC50: Homo sapiens, read-out: EC50 (viability); for Reduction of viability (compared to vehicle controls): serial 1:3 dilution
Description: as §1

OCI-AML2 = settings: for EC50: Homo sapiens, read-out: EC50 (viability); for Reduction of viability (compared to vehicle controls): serial 1:3 dilution
Description: as §1

HL-60 = settings: for Reduction of viability (compared to vehicle controls): serial 1:3 dilution; for EC50: Homo sapiens, read-out: EC50 (viability)
Description: as §1

KASUMI-1 = settings: for Reduction of viability (compared to vehicle controls): serial 1:3 dilution; for EC50: Homo sapiens, read-out: EC50 (viability)
Description: as §1

OCI-AML3 = settings: for Reduction of viability (compared to vehicle controls): serial 1:3 dilution; for EC50: Homo sapiens, read-out: EC50 (viability)
Description: as §1

THP-1 = settings: for Reduction of viability (compared to vehicle controls): serial 1:3 dilution; for EC50: Homo sapiens, read-out: EC50 (viability)
Description: as §1

[1] = MOLM-13, 96 hours, single agent
[2] = MV4-11, MV(4;11), 96 hours, single agent
[3] = OCI-AML2, 96 hours, single agent
[4] = KASUMI-1, 96 hours, single agent
[5] = OCI-AML-3, OCI-AML3, 96 hours, single agent

Structure (SMILES)	EC50 (MOLM-13; [1]) [nM]	EC50 (OCI-AML2; [3]) [nM]	EC50 (HL-60; HL-60, 96 hours, single agent) [nM]	EC50 (OCI-AML3; [5]) [nM]	EC50 (THP-1; THP-1, 96 hours, single agent) [nM]	Reduction of viability (compared to vehicle controls) (MOLM-13; MOLM-13, 96 hours)	EC50 (MV(4;11); [2]) [nM]	Reduction of viability (compared to vehicle controls) (MV(4;11); MV(4;11), 96 hours)	Reduction of viability (compared to vehicle controls) (OCI-AML2; OCI-AML2, 96 hours)	Reduction of viability (compared to vehicle controls) (HL-60; HL-60, 96 hours)	Reduction of viability (compared to vehicle controls) (KASUMI-1; KASUMI-1, 96 hours)	Reduction of viability (compared to vehicle controls) (OCI-AML3; OCI-AML3, 96 hours)	Reduction of viability (compared to vehicle controls) (THP-1; THP-1, 96 hours)	EC50 (KASUMI-1; [4]) [nM]	further results
O=C(CCCCCCC(=O)Nc1ccccc1)NO [SAHA, suberanilohydroxamic acid]	–	–	–	–	–	greater than 20%	–	greater than 20%	greater than 20%	greater than 20%	greater than 20%	greater than 20%	greater than 20%	–	–
O=C(CCCCCCNC(=O)c1cnc(N(c2ccccc2)c2ccccc2)nc1)NO [Rocilinostat, Ricolinostat]	–	–	–	–	–	greater than 20%	–	greater than 20%	greater than 20%	greater than 20%	greater than 20%	greater than 20%	greater than 20%	–	–
Nc1ccccc1NC(=O)c1ccc(CNC(=O)OCc2cccnc2)cc1 [Entinostat]	52	106	42	55.2	230	greater than 20%	98.5	greater than 20%	greater than 20%	greater than 20%	greater than 20%	greater than 20%	greater than 20%	168	–
Nc1ccn([C@@H]2O[C@H](CO)[C@@H](O)[C@@H]2O)c(=O)n1 [ARA-C, arabinofuranosyl cytidine]	78.5	26.5	43.5	145	252	greater than 20%	198	greater than 20%	greater than 20%	greater than 20%	greater than 20%	greater than 20%	greater than 20%	28.7	–
Nc1ncn([C@H]2C[C@H](O)[C@@H](CO)O2)c(=O)n1 [Decitabine, 5-aza-2′-deoxycytidine]	–	–	–	–	–	greater than 20%	–	greater than 20%	greater than 20%	greater than 20%	greater than 20%	greater than 20%	greater than 20%	–	EC50 (HL-60; HL-60, 96 h): 42.1 nM; EC50 (KASUMI-1; Kasumi 1, 96 h): 24 nM; EC50 (MOLM-13; MOLM-13, 96 h): 12.6 nM; EC50 (MV(4;11); MV4-11, 96 h): 79.5 nM; EC50 (OCI-AML2; OCI-AML2, 96 h): 36 nM; EC50 (OCI-AML3; OCI-AML-3, 96 h): 100 nM; EC50 (THP-1; THP-1, 96 h): 95 nM
CC1=C(/C=C/C(C)=C/C=C/C(C)=C/C(=O)O)C(C)(C)CCC1 [ATRA, all-trans retinoic acid]	4.8	5.9	2.7	0.8	1.7	greater than 20%	2.8	greater than 20%	greater than 20%	greater than 20%	–	greater than 20%	greater than 20%	–	–
CC(C)N(C[C@H]1O[C@@H](n2cnc3c(N)ncnc32)[C@H](O)[C@@H]1O)[C@H]1C[C@@H](CCc2nc3cc(C(C)(C)C)ccc3[nH]2)C1 [EPZ5676, Pinometostat]	44.7	–	–	–	–	greater than 20%	16	greater than 20%	–	–	–	–	–	–	–

More lines, main results first:

EC50 (MOLM-13; [1]) [nM]	EC50 (OCI-AML2; [3]) [nM]	EC50 (HL-60; HL-60, 96 hours, single agent) [nM]	EC50 (OCI-AML3; [5]) [nM]	EC50 (THP-1; THP-1, 96 hours, single agent) [nM]	Structure (SMILES)	Reduction of viability (compared to vehicle controls) (MOLM-13; MOLM-13, 96 hours)	EC50 (MV(4;11); [2]) [nM]	Reduction of viability (compared to vehicle controls) (MV(4;11); MV(4;11), 96 hours)	Reduction of viability (compared to vehicle controls) (OCI-AML2; OCI-AML2, 96 hours)	Reduction of viability (compared to vehicle controls) (HL-60; HL-60, 96 hours)	Reduction of viability (compared to vehicle controls) (KASUMI-1; KASUMI-1, 96 hours)	Reduction of viability (compared to vehicle controls) (OCI-AML3; OCI-AML3, 96 hours)	Reduction of viability (compared to vehicle controls) (THP-1; THP-1, 96 hours)	EC50 (KASUMI-1; [4]) [nM]	further results
< 1	830	–	–	–	CC(C)(C)c1cc(NC(=O)Nc2ccc(-c3cn4c(n3)sc3cc(OCCN5CCOCC5)ccc34)cc2)no1 [Quizartinib]	greater than 20%	< 1	greater than 20%	greater than 20%	–	–	–	–	–	–
323	1850	1810	889	2880	Nc1ncn([C@@H]2O[C@H](CO)[C@@H](O)[C@H]2O)c(=O)n1 [Azacitidine]	greater than 20%	1110	greater than 20%	greater than 20%	greater than 20%	greater than 20%	greater than 20%	greater than 20%	2280	–
25	14	113	–	–	CN(C)CC[C@H](CSc1ccccc1)Nc1ccc(S(=O)(=O)NC(=O)c2ccc(N3CCN(Cc4ccccc4-c4ccc(Cl)cc4)CC3)cc2)cc1[N+](=O)[O-] [ABT737, 4-[4-[[2-(4-chlorophenyl)phenyl]methyl]piperazin-1-yl]-N-[4-[[(2R)-4-(dimethylamino)-1-phenylsulfanylbutan-2-yl]amino]-3-nitrophenyl]sulfonylbenzamide]	greater than 20%	6.3	greater than 20%	greater than 20%	greater than 20%	greater than 20%	–	–	124	–
128	446	–	659	324	COc1ccc(C2=N[C@@H](c3ccc(Cl)cc3)[C@@H](c3ccc(Cl)cc3)N2C(=O)N2CCNC(=O)C2)c(OC(C)C)c1 [Nutlin3A, 4-[[(4S,5R)-4,5-bis(4-chlorophenyl)-4,5-dihydro-2-[4-methoxy-2-(1-methylethoxy)phenyl]-1H-imidazol-1-yl]carbonyl]-2-piperazinone]	greater than 20%	–	–	greater than 20%	–	–	greater than 20%	greater than 20%	–	–
108	–	–	–	–	CC(C)N(CCCNC(=O)Nc1ccc(C(C)(C)C)cc1)C[C@H]1O[C@@H](n2ccc3c(N)ncnc32)[C@H](O)[C@@H]1O [EPZ004777, 7-[5-Deoxy-5-[[3-[[[[4-(1,1-dimethylethyl)phenyl]amino]carbonyl]amino]propyl](1-methylethyl)amino]-β-D-ribofuranosyl]-7H-pyrrolo[2,3-d]pyrimidin-4-amine]	greater than 20%	118	greater than 20%	–	–	–	–	–	–	–
